From patent US20170066717A1, “NEW PHENYLAZETIDINECARBOXYLATE OR -CARBOXAMIDE COMPOUNDS” (INVENTIVA, priority 2014, published 2017) come the findings set out here.

A word on the Emax: it is the size of the effect at its maximum, as opposed to the concentration needed. In general, EC50 refers to the midpoint of the concentration-response curve.

Assay [1] concerns the target T1, NURR-1/RXRα (Homo sapiens, UniProt P19793).
T1 construct: expressed in transfected cells; host or cells: Cos-7 cells
Put plainly: Transactivation test, NURR-1-Gal4/RXRα, luciferase reporter in Cos-7 cells. The format is cell-based. As to conditions: for Emax: COS-7, induction level relative to reference XCT0135908 at 2×10^−5 M (=100%), read-out: hNurr1_RXRaFL Emax (%); for EC50: Cos-7 cells, NURR-1-Gal4/RXRα, luciferase reporter, read-out: hNurr1_RXRaFL EC50. On the procedure: (§1) The ability of the compounds according to the invention to behave as an activator of the heterodimers formed by the NURR-1 nuclear receptor and the RXR nuclear receptors was measured by means of an in vitro test. A transactivation test was used as primary selection (screening) test. Cos-7 cells were cotransfected with a plasmid expressing a chimera of the human NURR-1-Gal4 receptor, a plasmid expressing the human RXR receptor (RXRα or RXRγ receptor) and a 5Gal4pGL3-TK-Luc reporter plasmid. The transfctions were carried out using a chemical agent (Jet PEI). The transfected cells were distributed into 384-well plates and left to stand for 21 hours. At time 24 hours the culture medium was changed. The test products were added (final concentration of between 10^''4 and 3×10^-10 M) to the culture medium. After incubation overnight, the lucifeiase expression was measured after addition of SteadyGlo according to the instructions of the manufacturer (Promega). […] The induction levels (Emax) were calculated relative to the basal activity of each heterodimer.
On the technique in general: Reporter assays use an easily measured gene product as a stand-in for the process of interest.

The target of assay [2] is T2, NURR-1/RXRγ (Homo sapiens, UniProt P48443).
T2 construct: expressed in transfected cells; host or cells: Cos-7 cells
In words: Transactivation test, NURR-1-Gal4/RXRγ, luciferase reporter in Cos-7 cells. As to conditions: for Emax: COS-7, induction level relative to reference XCT0135908 at 2×10^−5 M (=100%), read-out: hNurr1_RXRgFL Emax (%); for EC50: Cos-7 cells, NURR-1-Gal4/RXRγ, luciferase reporter, read-out: hNurr1_RXRgFL EC50. The format is cell-based. The procedure: as §1

T1 sequence (P19793 whole entry): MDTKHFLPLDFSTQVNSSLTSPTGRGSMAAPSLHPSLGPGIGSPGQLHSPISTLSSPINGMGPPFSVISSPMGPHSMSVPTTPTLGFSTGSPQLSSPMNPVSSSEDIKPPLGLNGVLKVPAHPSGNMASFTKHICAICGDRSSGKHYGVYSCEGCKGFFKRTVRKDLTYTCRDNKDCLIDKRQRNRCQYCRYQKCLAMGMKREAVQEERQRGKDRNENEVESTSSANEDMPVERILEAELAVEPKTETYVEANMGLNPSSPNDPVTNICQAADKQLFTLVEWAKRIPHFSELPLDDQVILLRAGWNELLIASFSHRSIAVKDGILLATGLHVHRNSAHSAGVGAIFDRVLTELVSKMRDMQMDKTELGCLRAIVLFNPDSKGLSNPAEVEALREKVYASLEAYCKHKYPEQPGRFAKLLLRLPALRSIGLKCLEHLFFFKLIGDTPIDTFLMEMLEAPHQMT
T1 sequence (P43354 whole entry partner): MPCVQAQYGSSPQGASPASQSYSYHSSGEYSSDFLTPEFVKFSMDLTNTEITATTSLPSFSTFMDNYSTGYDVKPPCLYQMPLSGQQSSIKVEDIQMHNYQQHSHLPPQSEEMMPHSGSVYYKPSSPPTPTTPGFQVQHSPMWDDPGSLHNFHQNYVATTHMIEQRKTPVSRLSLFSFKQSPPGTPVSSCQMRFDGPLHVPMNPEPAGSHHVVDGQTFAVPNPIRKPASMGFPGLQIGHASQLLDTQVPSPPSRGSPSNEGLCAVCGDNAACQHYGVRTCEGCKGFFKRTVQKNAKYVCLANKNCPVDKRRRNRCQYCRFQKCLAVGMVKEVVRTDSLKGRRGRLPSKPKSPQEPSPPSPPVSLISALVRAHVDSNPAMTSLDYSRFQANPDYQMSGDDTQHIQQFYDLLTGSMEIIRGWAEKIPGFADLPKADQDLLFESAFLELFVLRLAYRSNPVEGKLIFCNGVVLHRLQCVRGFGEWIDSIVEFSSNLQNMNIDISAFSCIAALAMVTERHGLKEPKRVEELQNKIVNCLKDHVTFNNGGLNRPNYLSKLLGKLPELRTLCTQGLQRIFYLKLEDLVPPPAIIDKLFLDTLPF
T1 sequence (P04386 1-147 partner limits assumed): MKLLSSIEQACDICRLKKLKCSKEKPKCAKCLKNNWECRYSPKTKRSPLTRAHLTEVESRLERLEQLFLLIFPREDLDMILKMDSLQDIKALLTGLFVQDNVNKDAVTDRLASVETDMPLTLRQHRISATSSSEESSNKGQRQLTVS
T2 sequence (P48443 whole entry): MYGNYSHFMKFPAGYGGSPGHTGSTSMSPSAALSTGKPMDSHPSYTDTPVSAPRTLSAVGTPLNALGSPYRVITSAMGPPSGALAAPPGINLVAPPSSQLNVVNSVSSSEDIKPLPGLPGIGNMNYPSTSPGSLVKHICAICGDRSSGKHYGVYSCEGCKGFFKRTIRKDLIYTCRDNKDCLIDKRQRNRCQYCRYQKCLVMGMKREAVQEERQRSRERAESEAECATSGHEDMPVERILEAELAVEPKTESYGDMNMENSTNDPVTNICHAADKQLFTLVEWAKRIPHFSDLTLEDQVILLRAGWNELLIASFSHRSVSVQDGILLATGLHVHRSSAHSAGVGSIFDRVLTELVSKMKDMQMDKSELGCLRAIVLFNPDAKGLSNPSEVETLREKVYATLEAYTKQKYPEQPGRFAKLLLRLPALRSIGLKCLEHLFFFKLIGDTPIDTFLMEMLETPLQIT
T2 sequence (P43354 whole entry partner): as the sequence (P43354 whole entry partner) above
T2 sequence (P04386 1-147 partner limits assumed): as the sequence (P04386 1-147 partner limits assumed) above

On to `Cc1cc(-c2cccc(C(F)(F)F)c2F)cc(N2CC(C(=O)O)C2)c1` [Example 23, 1-[3-[2-fluoro-3-(trifluoromethyl)phenyl]-5-methylphenyl]azetidine-3-carboxylic acid], for which, in assay [1], the Emax came out at 111% and the EC50 turned out to be 0.013 µM. In addition, in assay [2], the Emax came out at 107% and the EC50 was found to be 0.03 µM.

As to `Cc1cc(-c2cc(C(F)(F)F)ccc2Cl)cc(N2CC(C(=O)O)C2)c1` [Example 24, 1-[3-[2-chloro-5-(trifluoromethyl)phenyl]-5-methylphenyl]azetidine-3-carboxylic acid], the Emax in assay [1] amounted to 114%; in assay [2], 104%. Further, the EC50 worked out at 0.003 µM in assay [1] and 0.013 µM in assay [2].

Consider `Cc1cc(-c2cccc3c2OC(F)(F)O3)cc(N2CC(C(=O)O)C2)c1` [Example 25, 1-[3-(2,2-difluoro-1,3-benzodioxal-4-yl)-5-methylphenyl]azetidine-3-carboxylic acid], for which, in assay [1], the Emax is 99% and the EC50 stood at 0.019 µM. Besides, in assay [2], the Emax stood at 109% and the EC50 worked out at 0.05 µM.

`Cc1cc(-c2cccc(N(C)C)c2)cc(N2CC(C(=O)O)C2)c1` [Example 26, 1-[3-[3-(dimethylamino)phenyl]-5-methylphenyl]azetidine-3-carboxylic acid]: in assay [1], the Emax is 108% and the EC50 was determined as 0.124 µM. In assay [2], the Emax worked out at 116% and the EC50 turned out to be 0.314 µM.

With `Cc1cc(-c2cccc(Cl)c2)cc(N2CC(C(=O)O)C2)c1` [Example 27, 1-[3-[3-chlorophenyl]-5-methylpehnyl]azetidine-3-carboxylic acid], the figures for the Emax in assay [1] and in assay [2] were 119% and 114%, respectively. The EC50 in assay [1] came out at 0.165 µM; in assay [2], 0.232 µM.

On to `Cn1cc(-c2cc(N3CC(C(=O)O)C3)cc(C(F)(F)F)c2)c2ccc(C(F)(F)F)cc21` [Example 28, 1-[3-[1-methyl-6-(trifluoromethyl)indol-3-yl]-5-(trifluoromethyl)phenyl]azetidine-3-carboxylic acid], for which the Emax in assay [1] came to 76%; in assay [2] it was 58%. Further, the EC50 in assay [1] is 0.045 µM; in assay [2], 0.07 µM.

Consider `Cn1cc(-c2cc(Cl)cc(N3CC(C(=O)O)C3)c2)c2ccc(C(F)(F)F)cc21` [Example 29], for which the Emax in assay [1] was determined as 78%; in assay [2] it was 85%.

Regarding `Cn1cc(-c2cccc(N3CC(C(=O)O)C3)c2)c2ccc(C(F)(F)F)cc21` [Example 30, 1-[3-[1-methyl-6-(trifluoromethyl)indol-3-yl]phenyl]azetidine-3-carboxylic acid], in assay [1], the Emax was determined as 102% and the EC50 came to 0.014 µM. Besides, in assay [2], the Emax is 97% and the EC50 was determined as 0.042 µM.

Consider `CC(C)(C)c1cccc(-c2cccc(N3CC(C(=O)O)C3)c2)n1` [Example 31, 2-tert-butyl-6-[3-(3-carboxyazetidine-1-yl)phenyl]pyridiuium chlrodie], for which the Emax in assay [1] was 62%; in assay [2] it was 59%. The EC50 in assay [1] turned out to be 0.153 µM; in assay [2], 0.401 µM.

As for `O=C(O)C1CN(c2cccc(-c3ccnc(C(F)(F)F)c3)c2)C1` [Example 32, 1-[3-[2-(trifluoromethyl)-4-pyridyl]phenyl]azetidine-3-carboxylic acid], the Emax in assay [1] was found to be 71%; in assay [2], 62%. The EC50 in assay [1] and in assay [2] was more than 5 µM each time.

As for `Cc1nc(-c2ccccc2)oc1-c1cccc(N2CC(C(=O)O)C2)c1` [Example 33, 1-[3-(4-methyl-2-phenyl-oxazol-5-yl)phenyl]azetidine-3-carboxylic acid], the maximal response (Emax) in assay [1] was determined as 119%; in assay [2], 71%. Moreover, the EC50 in assay [1] and in assay [2] was more than 5 µM throughout.

Consider `O=C(O)C1CN(c2cccc(-c3cncc(C(F)(F)F)c3)c2)C1` [Example 34, 1-[3-[5-(trifluoromethyl)3-pyridyl]phenyl]azetidine-3-carboxylic acid], for which, in assay [1], the Emax is 69% and the EC50 is more than 5 µM. In assay [2], the Emax was determined as 64% and the EC50 was more than 5 µM.

In the case of `Cc1nc(C(F)(F)F)nc(-c2cccc(N3CC(C(=O)O)C3)c2)c1C` [Example 35, 1-[3-[5,6-dimethyl-2-(trifloruomethyl)pyrrimidin-4-yl]phenyl]azetidine-3-carboxylic acid], in assay [1], the Emax came out at 45% and the EC50 was more than 5 µM. Moreover, in assay [2], the Emax came out at 44% and the EC50 is more than 5 µM.

For the molecule `O=C(O)C1CN(c2cccc(-c3ncc(Cl)c4ccccc34)c2)C1` [Example 36, 1-[3-(4-chloro-1-isoquinolyl)phenyl]azetidine-3-carboxylic acid], the Emax in assay [1] was determined as 140%; in assay [2], 121%. For the same molecule, the EC50 in assay [1] came to 0.449 µM; in assay [2], 1 µM.

As to `O=C(O)C1CN(c2cccc(-c3cc4ccccc4c(Cl)n3)c2)C1` [Example 37, 1-[3-(1-chloro-3-isoquinoyl)phenyl]azetidine-3-carboxylic acid], in assay [1], the Emax is 62% and the EC50 was more than 5 µM. Further, in assay [2], the Emax came to 99% and the EC50 came to 3.82 µM.

Take `O=C(O)C1CN(c2cccc(-c3cccc(C(F)(F)F)n3)c2)C1` [Example 38, 1-[3-[6-(trifluoromethyl)-2-pyridyl]phenyl]azetidine-3-carboxylic acid]: in assay [1], the Emax was determined as 75% and the concentration giving a half-maximal response (EC50) was more than 5 µM. In assay [2], the Emax amounted to 33% and the EC50 was more than 5 µM.

Consider `Cc1cc(-c2cccc(N3CC(C(=O)O)C3)c2)nc(-c2ccccc2)n1` [Example 39, 1-[3-(6-methyl-2-phenylpyrimidin-4-yl)phenyl]azetidine-3-carboxylic acid], for which the Emax was determined as 104% in assay [1] and 110% in assay [2]. Moreover, the figures for the EC50 in assay [1] and in assay [2] were 0.208 µM and 0.472 µM, respectively.

On to `O=C(O)C1CN(c2cccc(-c3cccc(-c4ccccc4)n3)c2)C1` [Example 40, 1-[3-(6-phenyl-2-pyridyl)phenyl]azetidine-3-carboxylic acid], for which, in assay [1], the Emax is 80% and the EC50 worked out at 0.557 µM. Also, in assay [2], the Emax is 62% and the EC50 turned out to be 0.88 µM.

As to `Cc1cn(-c2cccc(N3CC(C(=O)O)C3)c2)c2ccc(C(F)(F)F)cc12` [Example 41, 1-[3-[3-methyl-5-(trifluoromethyl)indol-1-yl]phenyl]azetidine-3-carboxylic acid], in assay [1], the Emax was determined as 134% and the EC50 came out at 0.0005 µM. Besides, in assay [2], the Emax amounted to 123% and the EC50 amounted to 0.0007 µM.

For `Cc1cn(-c2cc(Cl)cc(N3CC(C(=O)O)C3)c2)c2ccc(C(F)(F)F)cc12` [Example 42, 1-[3-chloroe-5-[3-methyl-5-(trifluoromethyl)indol-1-yl]phenyl]azetidine-3-carboxylic acid], in assay [1], the Emax worked out at 81% and the EC50 is 0.005 µM. Further, in assay [2], the Emax is 67% and the EC50 was more than 5 µM.

As for `Cc1cn(-c2cc(N3CC(C(=O)O)C3)cc(C(F)(F)F)c2)c2ccc(C(F)(F)F)cc12` [Example 43, 1-[3-[3-methyl-5-(trifluoromethyl)indol-1-yl]-5-(trifluoromethyl)phenyl]azetidine-3-carboxylic acid], in assay [1], the Emax amounted to 84% and the EC50 was 0.006 µM. Also, in assay [2], the Emax came out at 90% and the EC50 amounted to 0.009 µM.

In the case of `O=C(O)C1CN(c2cccc(-n3ccc4cc(C(F)(F)F)ccc43)c2)C1` [Example 44, 1-[3-[5-(trifluoromethyl)indol-1-yl]phenyl]azetidine-3-carboxylic acid], the Emax in assay [1] and in assay [2] was 108% in each case. In addition, the EC50 in assay [1] is 0.007 µM; in assay [2], 0.008 µM.

Consider `Cc1cc(N2CC(C(=O)O)C2)cc(-n2cc(C)c3cc(Cl)ccc32)c1` [Example 45], for which the values for the Emax in assay [1] and in assay [2] were 96% and 107%, respectively. For the same molecule, the EC50 came out at 0.002 µM in assay [1] and 0.003 µM in assay [2].

`Cc1cn(-c2cccc(N3CC(C(=O)O)C3)c2)c2ccc(C3CC3)cc12` [Example 46]: the Emax in assay [1] is 104%; in assay [2], 130%. In addition, the EC50 in assay [1] was 0.019 µM; in assay [2], 0.031 µM.

With `COc1ccc2c(ccn2-c2cc(C)cc(N3CC(C(=O)O)C3)c2)c1` [Example 47, 1-[3-(5-methoxyindol-1-yl)-5-methylphenyl]azetidine-3-carboxylic acid], in assay [1], the Emax came out at 91% and the EC50 is 0.368 µM. Further, in assay [2], the Emax worked out at 95% and the EC50 stood at 0.542 µM.

In the case of `COc1ccc2c(c1)c(C)cn2-c1cc(C)cc(N2CC(C(=O)O)C2)c1` [Example 48, 1-[3-(5-methoxy-3-methylindol-1-yl)-5-methylphenyl]azetidine-3-carboxylic acid], in assay [1], the Emax amounted to 96% and the EC50 was 0.037 µM. In assay [2], the Emax stood at 129% and the EC50 was found to be 0.123 µM.
